From patent US5089623A, “Certain imidate insecticides” (Imperial Chemical Industries Plc, priority 1990, dated 1992)

How the values were obtained:
Assay type in all cases: in vivo
[1] = system: Housefly [Musca domestica]; test: Housefly insecticidal test (HF); settings: per 25 female houseflies, 48 hours
[2] = system: Tobacco Budworm [Heliothis virescens (Fabricius)] eggs; test: Tobacco budworm egg test (TBW-E); settings: percent in solution
Description: Eggs: Paper towel patches of 2-day old eggs of the tobacco budworm were dipped in acetone solutions of the test compound and placed in petri dishes containing a portion of larval rearing medium. […] Test concentrations ranged from 0.1% downward.

[3] = system: Cabbage Looper [Trichoplusia ni (Hubner)]; test: Cabbage looper test (CL); settings: second-instar larvae, 3-5 days, percent in solution

**Q.** Which “LC50 HF” value [1] does the source give for `CC(C)C(=Nc1ccc(F)c(Cl)c1)OCc1ccc(Cl)c(Oc2ccc(F)cc2)c1` [Compound 448] here?
**A.** 16 µg

**Q.** What about the “LC50 TBW E” value [2] of the same compound?
**A.** 0.03%

**Q.** And the “LC50 CL” value [3]?
**A.** 0.003%

**Q.** For `CC(C)C(=Nc1cccc(C(F)(F)F)c1)OCc1cccc(Oc2ccc(Br)cc2)n1` [Compound 493], which “LC50 HF” value [1] is on record?
**A.** 36 µg

**Q.** What about the “LC50 TBW E” value [2] of the same compound?
**A.** 0.05%

**Q.** And the “LC50 CL” value [3]?
**A.** 0.0008%

**Q.** What does the source list for `CCC(=Nc1ccc(F)cc1F)OCc1cccc(Oc2ccccc2)c1` [Compound 59]?
**A.** LC50 HF [1]: 25 µg; LC50 TBW E [2]: > 0.1%; LC50 CL [3]: 0.02%

**Q.** For `CC(C)C(=Nc1ccc(F)c(Cl)c1)OCc1coc(Cc2ccccc2)c1` [Compound 474], which “LC50 HF” value [1] is on record?
**A.** 8 µg

**Q.** And the “LC50 TBW E” value [2]?
**A.** > 0.1%

**Q.** What about the “LC50 CL” value [3] of the same compound?
**A.** 0.0012%

**Q.** With `CC(C)C(=Nc1ccc(F)c(F)c1)OCc1cccc(Oc2ccc(Br)cc2)c1` [Compound 275] as the compound, how does the “LC50 HF” value [1] read?
**A.** 21 µg

**Q.** What about the “LC50 TBW E” value [2] of the same compound?
**A.** 0.045%

**Q.** And the “LC50 CL” value [3]?
**A.** 0.00012%

**Q.** With `CCC(C)C(=Nc1ccc(Cl)cc1)OCc1cccc(Oc2ccccc2)c1` (centres unmarked) [Compound 26] as the compound, how does the “LC50 HF” value [1] read?
**A.** > 100 µg

**Q.** And the “LC50 TBW E” value [2]?
**A.** > 0.1%

**Q.** And the “LC50 CL” value [3]?
**A.** 0.007%

**Q.** What does the source list for `FC(F)(F)c1cccc(N=C(OCc2cccc(Oc3ccccc3)c2)C2CC2)c1` [Compound 86]?
**A.** LC50 HF [1]: 65 µg; LC50 TBW E [2]: > 0.01%; LC50 CL [3]: 0.013%

**Q.** `Cc1cc(N=C(OCc2cccc(Oc3ccccc3)c2)C(C)C)ccc1F` [Compound 87] was tested. Which “LC50 HF” value [1] did it give?
**A.** 5 µg

**Q.** What about the “LC50 TBW E” value [2] of the same compound?
**A.** 0.03%

**Q.** And the “LC50 CL” value [3]?
**A.** 0.004%

**Q.** Which results are given for `CCOc1cccc(N=C(OCc2cccc(Oc3ccccc3)c2)C(C)C)c1` [Compound 171]?
**A.** LC50 HF [1]: 80 µg; LC50 TBW E [2]: > 0.1%; LC50 CL [3]: 0.01%

**Q.** Which “LC50 HF” value [1] does the source give for `CC(C)C(=Nc1ccc(Cl)c(Cl)c1)OCc1cccc(Oc2ccc(F)c(F)c2)c1` [Compound 218] here?
**A.** 25 µg

**Q.** What about the “LC50 TBW E” value [2] of the same compound?
**A.** 0.025%

**Q.** And the “LC50 CL” value [3]?
**A.** 0.0003%

**Q.** With `CCC(C)C(=Nc1ccc(C(C)C)cc1)OCc1cccc(Oc2ccccc2)c1` (centres unmarked) [Compound 317] as the compound, how does the “LC50 HF” value [1] read?
**A.** > 100 µg

**Q.** And the “LC50 TBW E” value [2]?
**A.** 0.03%

**Q.** And the “LC50 CL” value [3]?
**A.** 0.0045%

**Q.** Which results are given for `CC(C)C(=Nc1ccc2c(c1)OCO2)OCc1ccc(F)c(Oc2ccc(Cl)cc2)c1` [Compound 313]?
**A.** LC50 HF [1]: > 100 µg; LC50 TBW E [2]: 0.013%; LC50 CL [3]: 0.00025%

**Q.** With `CCOc1ccc(N=C(OCc2cccc(Oc3ccccc3)c2)C(C)(C)C)cc1` [Compound 164] as the compound, how does the “LC50 HF” value [1] read?
**A.** > 100 µg

**Q.** What about the “LC50 TBW E” value [2] of the same compound?
**A.** > 0.1%

**Q.** What about the “LC50 CL” value [3] of the same compound?
**A.** 0.005%

**Q.** Which results are given for `COc1cc(N=C(OCc2cccc(Oc3ccccc3)c2)C(C)C)c(OC)cc1Cl` [Compound 99]?
**A.** LC50 HF [1]: > 100 µg; LC50 TBW E [2]: > 0.1%; LC50 CL [3]: 0.016%

**Q.** With `Cc1c(COC(=Nc2ccc(F)cc2)C(C)C)cccc1-c1ccccc1` [Compound 458] as the compound, how does the “LC50 HF” value [1] read?
**A.** 100 µg

**Q.** And the “LC50 TBW E” value [2]?
**A.** > 0.05%

**Q.** And the “LC50 CL” value [3]?
**A.** 0.007%

**Q.** With `CC(C)C(=Nc1ccc(OC(F)(F)F)c(Cl)c1)OCc1cc(F)cc(Oc2ccc(F)cc2)c1` [Compound 328] as the compound, how does the “LC50 HF” value [1] read?
**A.** > 100 µg

**Q.** And the “LC50 TBW E” value [2]?
**A.** > 0.1%

**Q.** And the “LC50 CL” value [3]?
**A.** 0.03%

**Q.** For `Cc1ccc(Oc2cccc(COC(=Nc3ccc(F)c(Cl)c3)C(C)C)n2)cc1` [Compound 494], which “LC50 HF” value [1] is on record?
**A.** 34 µg

**Q.** What about the “LC50 TBW E” value [2] of the same compound?
**A.** > 0.1%

**Q.** What about the “LC50 CL” value [3] of the same compound?
**A.** 0.003%

**Q.** How did the “LC50 HF” value [1] turn out when `CC(C)(C)C(=Nc1ccc(F)cc1)OCc1cccc(Oc2ccccc2)c1` [Compound 48] was run?
**A.** > 100 µg

**Q.** And the “LC50 TBW E” value [2]?
**A.** > 0.05%

**Q.** And the “LC50 CL” value [3]?
**A.** 0.03%

**Q.** What does the source list for `CC(C)(F)C(=Nc1cccc(C(F)(F)F)c1)OCc1cccc(Oc2ccc(F)cc2)c1` [Compound 319]?
**A.** LC50 HF [1]: 44 µg; LC50 TBW E [2]: > 0.1%; LC50 CL [3]: 0.0007%

**Q.** For `CC(C)C(=Nc1cccc(Oc2ccccn2)c1)OCc1cccc(Oc2ccccc2)c1` [Compound 114], which “LC50 HF” value [1] is on record?
**A.** 92 µg

**Q.** What about the “LC50 CL” value [3] of the same compound?
**A.** < 0.1%

**Q.** How did the “LC50 HF” value [1] turn out when `FC(F)(F)c1ccc(Oc2ccc(COC(=Nc3ccc(Cl)cc3)C(Cl)Cl)cc2)nc1` [Compound 453] was run?
**A.** > 100 µg

**Q.** And the “LC50 CL” value [3]?
**A.** 0.1%

**Q.** `CC(C)C(=Nc1ccc(F)c(Cl)c1)OC(F)c1cccc(Oc2ccc(F)cc2)c1` (centres unmarked) [Compound 502] was tested. Which “LC50 HF” value [1] did it give?
**A.** 80 µg
